Reference: US9353150B2, “Substituted pyrazino[1′,2′:1 ,5]pyrrolo[2,3-b]-indole-1,4-diones for cancer treatment” (Massachusetts Institute of Technology, priority 2012, dated 2016)
Like-named read-outs stand apart in the source and are kept apart here.

What was measured:
[1] = tested on: U-937 (hystiocytic lymphoma); assay: 72-hour IC50 determination for non-adherent cells using MTS; format: cell-based, human
Description: (§1) Certain synthesized compounds were screened for their ability to induce death in two human cancer cell lines: U-937 (leukemic monocyte lymphoma) and HeLa (cervical cancer).
(§2) Cells were grown in media supplemented with fetal bovine serum (FBS) and antibiotics ([…]). Specifically, experiments were performed using the following cell lines and media compositions: U-937, HeLa, H460, and 786-O (RPMI-1640+10% FBS), and MCF7 (EMEM+10% FBS). Cells were incubated at 37° C. in a 5% CO2, 95% humidity atmosphere.
(§3) In a 96-well plate, compounds were pre-added as DMSO stocks in triplicate to achieve a final concentration of 1%. DMSO and cell-free wells served as the live and dead control, respectively. U-937 (5,000 cells/well) cells were distributed in 100 μL media to the compound-containing plate. After 72 hours, cell viability was assessed by adding 20 μL of a PMS/MTS solution (Cory, A. H.; Owen, T. C.; Barltrop, J. A.; Cory, J. G. Cancer Commun. 1991, 3, 207) to each well, allowing the dye to develop at 37° C. until the live control had processed MTS, and reading the absorbance at λ=490 nm. IC50 values were determined from three or more independent experiments using TableCurve (San Jose, Calif.).

[2] = tested on: 786-O (renal carcinoma); assay: 72-hour IC50 determination for adherent cells using sulforhodamine B (SRB); format: cell-based, human; details: error is standard deviation of the mean, n ≧ 3, read-out: 786-O, 72-hour IC50 (Table E1-2)
Description: (§4) Certain provided compounds were tested in culture against a panel of three supplementary human cancer cell lines representing three additional tumor histologies (H460, lung carcinoma; 786-O, renal carcinoma; MCF-7, breast carcinoma). As shown in Table E1-2, the ETPs retain their potency across the cell lines. In some embodiments, a provided compound is active in all cell lines. In some embodiments, a provide compound can be used to selectively target certain cells and/or cancers. […] Without the intention to be limited, Applicant notes that certain cell lines could be more sensitive to provided compounds; for example, U-937 and HeLa are slightly more sensitive to the ETPs than the other three cell lines.
as §2
(§5) Adherent cells (HeLa, H460, 786-O, and MCF7) were added into 96-well plates (5,000 cells/well for HeLa cell line; 2,000 cells/well for H460, 786-O, and MCF7 cell lines) in 100 μL media and were allowed to adhere for 2-3 hours. Compounds were solubilized in DMSO as 100× stocks, added directly to the cells (100 μL final volume), and tested over a range of concentrations in triplicate (1% DMSO final) on a half-log scale. Concentrations tested ranged from […] to 10 μM, depending on the potency of the compound. DMSO and cell-free wells served as the live and dead control, respectively. After 72 hours of continuous exposure, the plates were evaluated using the SRB colorimetric assay as described previously (Vichai, V.; Kirtikara, K. Nature Prot. 2006, 1, 1112). Briefly, media was removed from the plate, and cells were fixed by the addition of 100 μL cold 10% trichloroacetic acid in water. After incubating at 4° C. for an hour, the plates were washed in water and allowed to dry. Sulforhodamine B was added as a 0.057% solution in 1% acetic acid (100 μL), and the plates were incubated at room temperature for 30 minutes, washed in 1% acetic acid, and allowed to dry. The dye was solubilized by adding 10 mM Tris base solution (pH 10.5, 200 μL) and incubating at room temperature for 30 minutes. Plates were read at λ=510 nm. IC50 values were determined from three or more independent experiments using TableCurve (San Jose, Calif.).

[3] = tested on: MCF-7 (breast carcinoma); assay: as above; format: cell-based, human; details: error is standard deviation of the mean, n ≧ 3, read-out: MCF-7, 72-hour IC50 (Table E1-2)
Description: as §4, §2, §5

[4] = tested on: H460 (lung carcinoma); assay: as above; format: cell-based, human; details: error is standard deviation of the mean, n ≧ 3, read-out: H460, 72-hour IC50 (Table E1-2)
Description: as §4, §2, §5

[5] = tested on: HeLa (cervical carcinoma); assay: as above; format: cell-based, human
Description: as §1, §2, §5

[6] = Stability observed on isolation (concentration / solution); details: observed during isolation and characterization
[7] = tested on: human cancer cell lines; assay: Anticancer activity in human cancer cell lines, not tied to one cell line; format: cell-based; details: for anticancer activity, in words: human cancer cell lines, 72-hour exposure
Description: as §1, §4, §5, §3

[8] = Homo sapiens, U-937, 72-hour exposure, MTS, error is standard deviation of the mean, n ≧ 3, read-out: U-937, 72-hour IC50 (Table E1-1)
[9] = Homo sapiens, U-937, 72-hour exposure, MTS, error is standard deviation of the mean, n ≧ 3, read-out: U-937, 72-hour IC50 (Table E1-2)
[10] = Homo sapiens, 786-0, 72-hour exposure
[11] = Homo sapiens, MCF7, 72-hour exposure
[12] = Homo sapiens, NCI-H460, 72-hour exposure
[13] = Homo sapiens, HeLa, 72-hour exposure, SRB, error is standard deviation of the mean, n ≧ 3, read-out: HeLa, 72-hour IC50 (Table E1-1)
[14] = Homo sapiens, HeLa, 72-hour exposure, SRB, error is standard deviation of the mean, n ≧ 3, read-out: HeLa, 72-hour IC50 (Table E1-2)
[15] = 72-hour exposure, MTS, error is standard deviation of the mean, n ≧ 3, read-out: U-937, 72-hour IC50 (Table E1-1)
[16] = 72-hour exposure, MTS, error is standard deviation of the mean, n ≧ 3, read-out: U-937, 72-hour IC50 (Table E1-2)
[17] = 72-hour exposure, SRB, error is standard deviation of the mean, n ≧ 3, read-out: HeLa, 72-hour IC50 (Table E1-1)
[18] = 72-hour exposure, SRB, error is standard deviation of the mean, n ≧ 3, read-out: HeLa, 72-hour IC50 (Table E1-2)

| Structure (SMILES) | IC50 [1, 8] | IC50 [1, 9] | IC50 [2, 10] | IC50 [3, 11] | IC50 [4, 12] | IC50 [5, 13] | IC50 [5, 14] | stability upon concentration or in solution [6] | IC50 [1, 15] | IC50 [1, 16] | IC50 ([2]; 72-hour exposure) | IC50 ([3]; 72-hour exposure) | IC50 ([4]; 72-hour exposure) | anticancer activity, in words [7] | IC50 [5, 17] | IC50 [5, 18] | further results |
| --- | --- | --- | --- | --- | --- | --- | --- | --- | --- | --- | --- | --- | --- | --- | --- | --- | --- |
| CN1C(=O)[C@@]23C[C@]4(c5c[nH]c6ccccc56)c5ccccc5N(S(=O)(=O)c5ccccc5)[C@@H]4N2C(=O)[C@@H]1SSS3 [Compound 27, C3-(Indol-3′-yl) epitrithiodiketopiperazine] | 36.6 ± 2.4 nM | 36.6 ± 2.4 nM | 145 ± 10 nM | 151 ± 31 nM | 146 ± 6.9 nM | 27.5 ± 9.2 nM | 27.5 ± 9.2 nM | tends to degrade | – | – | – | – | – | – | – | – | – |
| CN1C(=O)[C@@]23C[C@]4(c5c[nH]c6ccccc56)c5ccccc5N[C@@H]4N2C(=O)[C@@H]1SSS3 [Compound 29, C3-(Indol-3′-yl) epitrithiodiketopiperazine] | 24.5 ± 7.4 nM | 24.5 ± 7.4 nM | 168 ± 34 nM | 217 ± 35 nM | 348 ± 110 nM | 123 ± 29 nM | 123 ± 29 nM | tends to degrade | – | – | – | – | – | – | – | – | – |
| CN1C(=O)[C@@]23C[C@]4(F)c5ccccc5N(S(=O)(=O)c5ccccc5)[C@@H]4N2C(=O)[C@@H]1SS3 [Compound 31, C3-Fluoro epidithiodiketopiperazines] | – | – | – | – | – | – | – | – | 20.7 ± 6.4 nM | 20.7 ± 6.4 nM | 368 ± 78 nM | 218 ± 97 nM | > 1000 nM | intermediately good activity | 1530 ± 440 nM | 1530 ± 440 nM | – |
| CSS[C@H]1C(=O)N2[C@H]3N(S(=O)(=O)c4ccccc4)c4ccccc4[C@@]3(c3cn(SC)c4ccccc34)C[C@]2(SSC)C(=O)N1C [Compound 45, C3-(Indol-3′-yl) N-(thiomethyl)bis(methyldisulfane)] | 14.5 ± 9.1 nM | 14.5 ± 9.1 nM | 376 ± 120 nM | 373 ± 75 nM | 252 ± 37 nM | 13.7 ± 2.3 nM | 13.7 ± 2.3 nM | – | – | – | – | – | – | competent anticancer agents | – | – | – |
| CN1C(=O)[C@@]23C[C@]4([C@]56C[C@@]78SS[C@@](C)(C(=O)N7[C@H]5Nc5ccccc56)N(C)C8=O)c5ccccc5N[C@@H]4N2C(=O)[C@]1(C)SS3 [Compound 3, (+)-12,12′-dideoxyverticillin A] | – | – | – | – | – | – | – | – | 15.5 ± 2.9 nM | 15.5 ± 2.9 nM | 33.5 ± 12.6 nM | 28.4 ± 4.5 nM | 42 ± 15 nM | active across the board | 7.2 ± 3 nM | 7.2 ± 3 nM | IC50 ([1]; 72-hour exposure, read-out: IC50 (U-937)): 15.5 nM; IC50 ([5]; 72-hour exposure, read-out: IC50 (HeLa)): 7.2 nM |
| CN1C(=O)[C@@]23C[C@]4(c5cc[nH]c5)c5ccccc5N(S(=O)(=O)c5ccccc5)[C@@H]4N2C(=O)[C@@H]1SS3 [Compound 32, C3-(Pyrrol-3′-yl) epidithiodiketopiperazine] | – | – | 66 ± 23 nM | 61 ± 11 nM | 31.8 ± 2.5 nM | – | – | – | – | – | – | – | – | – | – | – | IC50 ([1]; Homo sapiens, U-937, 72 h, read-out: IC50 (U-937)): 2.8 to 14.8 nM; IC50 ([1]; Homo sapiens, U-937, 72 h, read-out: U-937, 72-hour IC50 (Table E1-1)): 14.8 ± 3.1 nM; IC50 ([1]; Homo sapiens, U-937, 72 h, read-out: U-937, 72-hour IC50 (Table E1-2)): 14.8 ± 3.1 nM; change in activity across cell lines ([7]; five cell lines of Table E1-2): 4 fold; IC50 ([5]; Homo sapiens, HeLa, 72 h, read-out: HeLa, 72-hour IC50 (Table E1-1)): 26.8 ± 4.8 nM; IC50 ([5]; Homo sapiens, HeLa, 72 h, read-out: HeLa, 72-hour IC50 (Table E1-2)): 26.8 ± 4.8 nM; IC50 ([5]; Homo sapiens, HeLa, 72 h, read-out: IC50 (HeLa)): 22 to 75 nM |
